Results on seven molecules are retold here after patent publication US20160279190A1, “MODULATION OF AXON DEGENERATION” (GENENTECH, INC., priority 2008, published 2016).

The test system of experiment [1] is DRGs. Briefly: G-protein/GPCR inhibitors in NGF withdrawal-induced degeneration in DRGs. Format: cell-based. On the procedure: The assays described herein identified several inhibitors of G-proteins and G-protein coupled receptors (GPCRs) that decrease degeneration in neurons. Experiments were performed in DRGs to verify the role of G-proteins and GPCRs in degeneration pathways. The experimental protocols used in these experiments are the same as those described in Example 14. Pertussis toxin and SCH 202676 were purchased from Tocris Bioscience.

Experiment [2] concerns DRGs. The experiment is described as follows: Campenot chamber local axon degeneration, anti-NGF in axon compartment. It counts as cell-based, mouse. To be noted: for formation of varicosities in locally NGF-deprived axons: axon inhibitors added to axon compartment: 10 μM AG555, 30 μM SB239; for Axon Compartment (axon protected when inhibitor is in axon compartment) / Cell Body Compartment (axon protected when inhibitor is in cell body compartment): anti-NGF in axon compartment, 28 hours. As for the experimental part: Teflon dividers (Tyler Research) were cleaned by washing in water and wiping them clean of any residual grease. Dividers were then soaked in Nochromix (Godax Laboratories)/sulfuric acid overnight, rinsed five times in distilled and autoclaved water (SQ water), boiled for 30 minutes, and then air-dried before use.
Mouse laminin (5 μg/ml in sterile filtered water; Invitrogen) was added to PDL coated 35 mm dishes (BD Biosciences) and they were incubated for 1 hour at 37° C., followed by two rinses in SQ water. The dishes were vacuum-dried and then air-dried in a laminar flow hood for 15 minutes. Prepared dishes were then scored with a pin rake (Tyler Research). […] High vacuum grease (VWR) was added to each Teflon divider under a dissection scope. The laminin coated PDL dishes were inverted and dropped onto the Teflon divider, with additional pressure added by use of a toothpick in the non-track-containing regions. Dishes were incubated for 1 hour at 37° C. Five hundred microliters of NBM+MC (50 ng/ml NGF) solution was added to each of the side compartments, and a grease barrier was added in front of the center cell slot.
Free E13.5 spinal cords were dissected from mouse embryos and placed into NBM+MC (25 ng/ml NGF) solution. DRGs were detached from the spinal cord with a tungsten needle. An NBM+MC-lubricated P200 pipette was used to move DRGs into a 1.5 ml tube. DRGs were pelleted with a tabletop centrifuge for 30 seconds. The supernate was discarded and 0.05% Trypsin/EDTA (cold) was added. The pellet was resolubilized with a pipette and incubated at 37° C. for 15 minutes with constant agitation (650 RPM). The sample was again centrifuged and the supernate discarded. The pellet was resuspended in warm NBM+MC (50 ng/ml NGF) solution and triturated with a flamed glass pipette 20 times, followed by trituration with a fire-bored glass pipette another 20 times. The samples were again centrifuged and the resulting pellets were resuspended in 0.5 ml NBM+MC (50 ng/ml NGF) solution. The cells were diluted to a final concentration of 2.5×10^6 cells/ml. The cell suspensions were loaded into a 1 ml syringe with a 22 gauge needle. The center slot of the Campenot divider was filled using the syringe (to a volume of at least 50 μl). The Campenot chamber was incubated overnight at 37° C. 2.5 ml NGF+MC (50 ng/ml NGF) solution was added to the center compartment and the grease gate was removed. The outer medium (cell body compartment) was replaced after three days with 2.5 ml NBM+MC medium (with 25 ng/ml NGF). After five days in culture, one distal compartment was washed three times with warmed NBM+MC (no NGF) solution. After the third wash, 500 μl NBM+MC (no NGF) solution was added to the axon compartment in combination with either 0.5% DMSO or an inhibitor. The cell body compartment was replaced with 2.5 ml NBM+MC medium (with 25 ng/ml NGF) containing either 0.5% DMSO or inhibitor.
After 28 hours of anti-NGF antibody treatment, 8% PFA/30% sucrose solution (see above) was added directly to the culture medium at a 1:1 dilution and incubated for 30 minutes. The Teflon divider was removed after the first 15 minutes of addition. The system was washed once with 2.5 ml PBS prior to immunostaining. Neurons were blocked in 5% BSA/0.2% triton in PBS for 30 minutes. The primary antibody Tuj1 (Covance) was added to a final dilution of 1:1000 in PBS containing 2% BSA and incubated overnight at 4° C. The dish was washed once with PBS. […] The dish was washed twice with PBS, and a 22×22 mm coverslip (VWR) was added with 350 μl of fluoromount G (Electron Microscopy Sciences). The neurons were visualized by use of a fluorescence microscope.
As described above, E13.5 DRGs were isolated and grown for 5 days in a Campenot chamber.

Experiment [3] concerns cerebellar granule neurons (CGNs). Briefly: serum deprivation/KCl reduction-induced degeneration. It counts as cell-based, mouse. The note with it: 5 mM KCl, 24 hours. As for the experimental part:
Kinase inhibitors (inhibitors of GSK3, JNK, EGFR, p38, and CaMKK) were tested for their capacity to protect cultured cerebellar granule neurons (CGNs) following serum deprivation/KCl reduction. Briefly, CGNs isolated from P7 mouse brain were cultured on PDL- and laminin-coated 96-well tissue culture dishes in medium containing serum and potassium (Basal Medium Eagles including 29 mM KCl and 10% FBS) at 37° C. After 24 hours in culture, cells were switched to “deprivation” medium (Basal Medium Eagles including 5 mM KCl), alone or in combination with various small molecule inhibitors as shown in Table 8. After a further 24 hours in culture, the neurons were fixed with 4% paraformaldehyde and stained with a neuronal marker (anti-class III β-Tubulin, Covance). Image acquisition was performed using the ImageXpress automated imaging system (Molecular Devices).

For experiment [4], the system named is ERK. The experiment is described as follows: ERK activation by EGFR ligand, Western blot. To be noted: 100 μg/mL EGF, 30 minutes to 1 hour. Format: cell-based, mouse. As for the experimental part:
(§1) Dorsal Root Ganglia (DRG) immunoblots were prepared as follows. Primary cells used in the experiments were Charles River CD-1 E13 Dorsal Root Ganglia (DRG). The cells were maintained in N3/F12 (+25 ng/ml NGF) medium (Ham's F12 (23 ml), N3 supplement (1 ml), glucose (1 ml of 1 M glucose stock), 25 ng/ml Nerve Growth Factor 2.5 S, mouse (Roche 11362348001) in Ham's F12 (stock: 50 μg/ml −80° C.), which was filter-sterilized prior to use). The experiments also employed Triton lysis buffer (20 mM Tris pH 7.5, 150 mM NaCl, 0.1% Triton-X100, 100× Phosphatase inhibitor cocktail I (added fresh), 100× Phosphatase inhibitor cocktail II (added fresh), 1 tablet/10 ml Protease inhibitor tablet (added fresh)).
DRG explants were prepared on Day 0. Embryo dissections were carried out in L15 medium (dissection tools were soaked in 70% isopropanol, and dishes were set up on ice: 10 cm dishes (4 embryos per dish) and one 6 cm dish for spinal cords). E13.5 spinal cords were extracted into DMEM+10% FBS. […]
Immunoblotting was carried out by aspiration of media with a pipette tip, washing twice with ice-cold sterile PBS, and removal of all PBS using an aspirator with a pipette tip or kimwipes. […] Quantification was carried out by choosing a background method and standard bands that minimize negative/counter-intuitive values: i.e., top/bottom, right/left, user-defined (user-defined). […]
Background: In western blotting, separated proteins are transferred to a membrane and probed.

The test system of experiment [5] is dorsal root ganglion neurons. Briefly: EGFR ligand added to neurons maintained in NGF: axon degeneration. Format: cell-based, mouse. To be noted: 100 μg/mL EGF. As for the experimental part: as §1
DRG explants were prepared on Day 0. Embryo dissections were carried out in L15 medium (dissection tools were soaked in 70% isopropanol, and dishes were set up on ice: 10 cm dishes (4 embryos per dish) and one 6 cm dish for spinal cords). E13.5 spinal cords were extracted into DMEM+10% FBS. 5×20 DRGs were detached from the spinal cord. 8 well slides were filled with 250 μl N3/F12 (25 ng/ml NGF)+7 μM cytosine arabinoside. […]
The goal of these experiments was to see if activation of EGFR by EGF would be sufficient to drive degeneration. […] To ensure that EGF is capable of activating EGFR/ErbBs in the neuronal cultures used in these assays, ERK activation was assessed (ERK is a downstream target of EGFR).

The test system of experiment [6] is dorsal spinal cord explants. Briefly: dorsal spinal cord (DSC) explant degeneration. It counts as cell-based. The note with it: 3.4 μM, 11.1 μM, 33.3 μM and 100 μM (FIG. 37).
From the text: DSCs grow out axons over a period of days, but if they are not rescued with the addition of a survival factor, they will eventually degenerate.
Setting [7] is: inhibitor 30 μM, listed as SB239.
Setting [8] is: inhibitor 30 μM, listed as SB239063.

Entries after “also recorded” stand apart in the source; their conditions may differ.

For Pertussis toxin, the “degeneration in neurons following NGF withdrawal” value in experiment [1] (0.01 μg/mL, 0.1 μg/mL or 1 μg/mL (FIG. 51)) is reported as “decreases degeneration in neurons following NGF withdrawal”.
Consider `C=C/C=C(\C=C)CCCNC(=O)/C(C#N)=C/c1ccc(O)c(O)c1` [AG 555], for which the “formation of varicosities in locally NGF-deprived axons” value in experiment [2] is on record as “fewer varicosities”. For the same molecule, in experiment [2] (inhibitor 10 μM), the “Axon Compartment (axon protected when inhibitor is in axon compartment)” value is reported as “did not degenerate; also recorded: protected from local degeneration; also recorded: Yes (4)” and the “Cell Body Compartment (axon protected when inhibitor is in cell body compartment)” value was “failed to prevent degeneration; also recorded: No (4)”. Further, the “protection of cerebellar granule neurons from serum deprivation/KCl reduction” value in experiment [3] (inhibitor 1 μM or 10 μM) is on record as “protect cerebellar granule neurons from serum deprivation/KCl reduction”.
Regarding “EGF: ErbB ligand (ErbB1) that activates EGFR (NSDSECPLSHDGYCLHDGVCMYIEALDKYACNCVVGYIGERCQYRDLKWWELR; Epidermal growth factor; UniProt P01133 971-1023, looked up)”, the “phosphorylation of ERK (ERK activity by Western blot)” value in experiment [4] is “increased ERK activity; also recorded: induces phosphorylation of ERK”. Besides, the “induction of axon degeneration in neurons maintained in NGF” value in experiment [5] is given as “does not cause degeneration; also recorded: does not induce axon degeneration”.
In the case of `COc1nccc(-c2c(-c3ccc(F)cc3)ncn2C2CCC(O)CC2)n1` (stereo not shown) [SB 239063], in experiment [2], the “formation of varicosities in locally NGF-deprived axons” value was “fewer varicosities”. The entries for the “Axon Compartment (axon protected when inhibitor is in axon compartment)” value in experiment [2] (inhibitor 5 μM), in experiment [2] (setting [7]) and in experiment [2] (setting [8]) were “Yes (1)”, “did not degenerate; also recorded: protected from local degeneration” and “Yes (3)”, respectively. Further, the “Cell Body Compartment (axon protected when inhibitor is in cell body compartment)” value in experiment [2] (inhibitor 5 μM) is listed as “No (1)”; in experiment [2] (setting [7]) it was “failed to prevent degeneration”; in experiment [2] (setting [8]) it was “No (3)”. For the same molecule, the “protection of cerebellar granule neurons from serum deprivation/KCl reduction” value in experiment [3] (inhibitor 5 μM) is “protect cerebellar granule neurons from serum deprivation/KCl reduction”.
As to `CN=c1nc(-c2ccccc2)n(-c2ccccc2)s1` [SCH 202676], the “NGF withdrawal-induced degeneration in DRGs” value in experiment [1] (0.1 μM, 1 μM, 10 μM or 100 μM (FIGS. 49 and 50)) is recorded as “decreases NGF withdrawal-induced degeneration in DRGs”.
As for `O=C1c2ccccc2-c2n[nH]c3cccc1c23` [SP600125], the “Axon Compartment (axon protected when inhibitor is in axon compartment)” value in experiment [2] (inhibitor 5 μM) and in experiment [2] (inhibitor 10 μM) was “Yes (1)” throughout. For the same molecule, the “Cell Body Compartment (axon protected when inhibitor is in cell body compartment)” value in experiment [2] (inhibitor 5 μM) and in experiment [2] (inhibitor 10 μM) was “Yes (1)” throughout. The “protection of cerebellar granule neurons from serum deprivation/KCl reduction” value in experiment [3] (inhibitor 5 μM) is “protect cerebellar granule neurons from serum deprivation/KCl reduction”.
For `C#Cc1cccc(Nc2ncnc3cc(OCCOC)c(OCCOC)cc23)c1` [Tarceva, N-(3-ethynylphenyl)-6,7-bis(2-methoxyethoxy)quinazolin-4-amine], the “degeneration in dorsal spinal cord explants” value in experiment [6] is “delay this degeneration program; also recorded: blocks degeneration in dorsal spinal cord explants”.
